Measured values taken from ChEMBL document CHEMBL1124729, “Plant antitumor agents. 29. Synthesis and biological activity of ring D and ring E modified analogues of camptothecin” (1990).
Values after ≈ are worked out from the molar mass of the structure shown. Active and inactive are the calls of the source. The rule behind the calls is not given here.

Experiments:
[1] = system: Nucleic Acid; assay: The compound was tested for inhibitory activity against DNA relaxation by DNA topoisomerase I at dose 10-30 uM; Inactive; assay type: functional
[2] = system: L1210; assay: The compound was tested in vivo for life prolongation against mouse L1210 tumor cells at 80 mg/kg concentration; Inactive; assay type: functional, organism-based; parameters: dose 80 mg/kg
[3] = species on record: Mus musculus; assay: (§1) The cytotoxic activity was in vitro tested by 9PS assay method; assay type: functional; conditions: read-out: ED50 (the source's name)
[4] = system: L1210 (Mus musculus); assay: The compound was tested in vivo for life prolongation against mouse L1210 tumor cells at 80 mg/kg concentration; No toxicity
[5] = system: KB cells (Homo sapiens); assay: The cytotoxic activity in vitro by 9KB assay method; conditions: read-out: ED50 (the source's name)
[6] = system: Nucleic Acid; assay: The compound was tested for inhibitory activity against DNA relaxation by DNA topoisomerase I at dose 30 uM; assay type: functional
[7] = system: Nucleic Acid; assay: The compound was tested for inhibitory activity against DNA relaxation by DNA topoisomerase I at dose 100 uM; assay type: functional
[8] = system: Nucleic Acid; assay: The compound was tested for inhibitory activity against DNA relaxation by DNA topoisomerase I at dose 10 uM; assay type: functional
[9] = as §1; assay type: functional; conditions: Mus musculus; read-out: ED50 (the source's name)
[10] = system: P388; assay: The compound was tested in vivo for life prolongation against mouse P388 tumor cells at 8 mg/kg concentration; assay type: functional
[11] = species on record: Mus musculus; assay: The cytotoxic activity in vitro by 9KB assay method.; assay type: functional; conditions: read-out: ED50 (the source's name)
[12] = The cytotoxic activity was in vitro tested by 9PS assay method.; assay type: functional; conditions: Mus musculus; read-out: ED50 (the source's name)
[13] = system: P388; assay: The compound was tested in vivo for life prolongation against mouse P388 tumor cells at 4 mg/kg concentration; assay type: functional
[14] = system: L1210; assay: The compound was tested in vivo for life prolongation against mouse L1210 tumor cells at 4 mg/kg concentration; assay type: functional
[15] = system: L1210; assay: The compound was tested in vivo for life prolongation against mouse L1210 tumor cells at 30 mg/kg concentration; Inactive; assay type: functional, organism-based; parameters: dose 30 mg/kg
[16] = system: L1210 (Mus musculus); assay: The compound was tested in vivo for life prolongation against mouse L1210 tumor cells at 30 mg/kg concentration; Nontoxic
[17] = system: L1210; assay: The compound was tested in vivo for life prolongation against mouse L1210 tumor cells at 40 mg/kg concentration; Inactive; assay type: functional, organism-based; parameters: dose 40 mg/kg
[18] = system: P388; assay: The compound was tested in vivo for life prolongation against mouse P388 tumor cells at 40 mg/kg concentration; No toxicity; assay type: functional, organism-based; parameters: dose 40 mg/kg

Compound	inhibition [1]	EC50 [3]	EC50 [5]	inhibition [6]	further results
CC[C@@]1(O)C(=O)NCc2c1cc1n(c2=O)Cc2cc3ccccc3nc2-1	inactive	3 µg/mL (≈ 8.64 µM)	> 10 µg/mL		T/C x100 [2]: inactive; T/C x100 [4]: No toxicity
CCC1(O)C(=O)OCc2c1cc1n(c2=O)Cc2cc3ccccc3nc2-1 (centres undefined)			0.03 µg/mL (≈ 0.0861 µM)	48%	inhibition [7]: 70%; inhibition [8]: 39%; EC50 [9]: 0.04 µg/mL (≈ 0.115 µM); T/C x100 [10]: 220%
CCC1(O)C(=O)OCc2cc3c(cc21)-c1nc2ccccc2cc1C3 (centres undefined)				6%	EC50 [11]: 1.3 µg/mL (≈ 3.92 µM); inhibition [7]: 38%; EC50 [12]: 2.5 µg/mL (≈ 7.54 µM)
CC[C@@]1(O)C(=O)OCc2c1cc1n(c2=O)Cc2cc3ccccc3nc2-1 [CAMPTOTHECIN]		0.08 µg/mL (≈ 0.23 µM)	0.02 µg/mL (≈ 0.0574 µM)	85%	T/C x100 [13]: 199%; inhibition [8]: 76%; T/C x100 [14]: 200%
CCC1(O)C(=O)OCc2c1ccc1c2-c2nc3ccccc3cc2C1 (centres undefined)		> 10 µg/mL	> 10 µg/mL	0%	
CCC1(N=[N+]=[N-])C(=O)OCc2c1cc1n(c2=O)Cc2cc3ccccc3nc2-1 (centres undefined)	inactive	> 10 µg/mL	> 10 µg/mL		T/C x100 [15]: inactive; T/C x100 [16]: Non-toxic
CCC1(N)C(=O)OCc2c1cc1n(c2=O)Cc2cc3ccccc3nc2-1.Cl (centres undefined)	inactive	3.4 µg/mL	1.6 µg/mL		T/C x100 [17]: inactive; T/C x100 [18]: No toxicity
